{"source": "patent US11692436B2", "about": "“Molecular tracers and modified proppants for monitoring underground fluid flows” (National Technology & Engineering Solutions of Sandia, LLC, priority 2014, dated 2023)", "assay": "Elution studies: tracer release from an infused porous proppant pack under constant solvent flow", "type": "physicochemical", "details": "proppant pack infused with 4", "procedure": "Elution studies: Laboratory experiments designed to mimic fluid flow through hydraulically-fractured zones in a subsurface well that contain a ceramic proppant were conducted. In general, the experimental setup uses a cartridge pump to send the desired solvent fluid (either aqueous or hydrocarbon) at a constant rate through a small “proppant pack” to a fraction collector. The proppant pack consists of porous proppants that have been infused with the metal salen compounds which are packed into a plastic syringe equipped with a fine mesh proppant retention screen at the entrance tip. The pore volume—a measure of the fluid volume within the pack of proppant pellets—is measured. The proppant pack is then sealed at the top with a rubber septum to generate pressure to force the exiting fluid into tubing for transport to the collection test tubes in the fraction collector. Samples were collected over many pore volumes and the concentrations of metal complexes in the samples were measured by either Atomic Absorption Spectrophotometry (AAS) or Raman spectroscopy after the desired number of pore volumes had passed over the proppant pack. […] This retardation of tracer release in the early stage of use is important as it will extend the useful life of the tracer in practical applications, as the total amount of tracer that can be loaded is limited by the porosity of the proppant and solubility of the M-L metal complex.\n(iii) Elution data. As mentioned previously, in order for the prepared metal-salen ligand complexes to be useful in tracking fluid flows the infused complexes must elute from the underground proppants upon exposure to the produced fluid, and remain soluble until they are analyzed above-ground. […]\nSecond, the testing solvent can be either an aqueous salt solution that simulates a formation brine or a long-chain hydrocarbon (such as Isopar L) to mimic the organic products. […] The amount of eluted tracer could also be measured using quantitative Raman spectroscopy. […]"}
{"substance": "[(κ^4-(O,N,N′,O′)saloPh-Bu^t)Mg(py)2].tol [Compound 4]", "values": [{"measurement": "level of eluted Mg-salen complex", "setting": "aliquot taken after four pore volumes had been collected (initial phase)", "result": 176, "unit": "ppb"}, {"measurement": "level of eluted Mg-salen complex", "setting": "intermediate sampling at the 20 pore volume mark", "result": 29, "unit": "ppb"}, {"measurement": "level of eluted Mg-salen complex", "setting": "latter stages of testing at the ~40 pore volume mark", "result": 9, "unit": "ppb"}]}
